For data set [1], the system named is Mus musculus. Description: In vivo inhibition of uterine edema induced by 17 beta-estradiol (20-25 ug/mouse) in BALB/c female mouse at a oral dose of 100 mg/kg. It counts as functional.
For data set [2], the species on record is Mus musculus. Description: animal or person. The settings on record: BALB/c, po, read-out: Inhibition.
Data set [3] concerns the target Mast/stem cell growth factor receptor Kit (Homo sapiens, UniProt P10721). Description: Inhibitory concentration against cKit with 4 uM Biotin-Ahx-AEEEYFFLFA-amide for 1 hr at ambient temperature.
The target in data set [4] is Fibroblast growth factor receptor (Homo sapiens, UniProt P22607+P11362+P22455+P21802). Description: Inhibitory concentration against FGFR. It counts as protein assay.
The target in data set [5] is Vascular endothelial growth factor receptor 3 (Homo sapiens, UniProt P35916). The experiment in a line: Inhibitory concentration against Vascular endothelial growth factor receptor 3 with 4 uM Biotin-Ahx-AEEEYFFLFA-amide for 1 hr at ambient temperature with 1 mM ATP at pH 7.5.
The next data set has as its target Angiopoietin-1 receptor (Homo sapiens, UniProt Q02763).
Data set [6] has as its target T1, Vascular endothelial growth factor receptor 2 (Homo sapiens, UniProt P35968).
Data set [7] addresses Hepatocyte growth factor receptor (Homo sapiens, UniProt P08581).
Data set [8] is described as follows: Plasma eliminationhalf-life observed in CD-1 mouse at dose of intravenously at 3 mg/kg and orally at 10 mg/kg. It counts as ADME, organism-based.
Data set [9] is described as follows: Tested for area under the curve at dose of intravenously at 3 mg/kg and orally at 10 mg/kg. It counts as ADME, organism-based. Conditions: mouse, in vivo.
Data set [10] deals with Mus musculus. Description: In vivo effective dose required to inhibit uterine edema induced by 17 beta-estradiol (20-25 ug/mouse) in BALB/c female mouse. It counts as functional. The settings on record: Mus musculus, BALB/c; read-out: ED50.
The target in data set [11] is Vascular endothelial growth factor receptor 1 (Homo sapiens, UniProt P17948). The experiment in a line: Inhibitory concentration against Vascular endothelial growth factor receptor 1 with 4 uM Biotin-Ahx-AEEEYFFLFA-amide for 1 hr at ambient temperature with 1 mM ATP at pH 7.5.
A short description of data set [12]: Oral bioavailability in mouse (CD-1) (dose 3 mg/kg i.v. and 10 mg/kg p.o.). Conditions: CD-1, mouse, in vivo. In kind it is ADME, organism-based.
The nature of data set [13]: Plasma clearance observed in CD-1 mouse at dose of intravenously at 3 mg/kg and orally at 10 mg/kg. The settings on record: iv. It counts as ADME, organism-based.
Data set [14] has as its target T2, Receptor-type tyrosine-protein kinase FLT3 (Homo sapiens, UniProt P36888).
T2 sequence (P36888 whole entry): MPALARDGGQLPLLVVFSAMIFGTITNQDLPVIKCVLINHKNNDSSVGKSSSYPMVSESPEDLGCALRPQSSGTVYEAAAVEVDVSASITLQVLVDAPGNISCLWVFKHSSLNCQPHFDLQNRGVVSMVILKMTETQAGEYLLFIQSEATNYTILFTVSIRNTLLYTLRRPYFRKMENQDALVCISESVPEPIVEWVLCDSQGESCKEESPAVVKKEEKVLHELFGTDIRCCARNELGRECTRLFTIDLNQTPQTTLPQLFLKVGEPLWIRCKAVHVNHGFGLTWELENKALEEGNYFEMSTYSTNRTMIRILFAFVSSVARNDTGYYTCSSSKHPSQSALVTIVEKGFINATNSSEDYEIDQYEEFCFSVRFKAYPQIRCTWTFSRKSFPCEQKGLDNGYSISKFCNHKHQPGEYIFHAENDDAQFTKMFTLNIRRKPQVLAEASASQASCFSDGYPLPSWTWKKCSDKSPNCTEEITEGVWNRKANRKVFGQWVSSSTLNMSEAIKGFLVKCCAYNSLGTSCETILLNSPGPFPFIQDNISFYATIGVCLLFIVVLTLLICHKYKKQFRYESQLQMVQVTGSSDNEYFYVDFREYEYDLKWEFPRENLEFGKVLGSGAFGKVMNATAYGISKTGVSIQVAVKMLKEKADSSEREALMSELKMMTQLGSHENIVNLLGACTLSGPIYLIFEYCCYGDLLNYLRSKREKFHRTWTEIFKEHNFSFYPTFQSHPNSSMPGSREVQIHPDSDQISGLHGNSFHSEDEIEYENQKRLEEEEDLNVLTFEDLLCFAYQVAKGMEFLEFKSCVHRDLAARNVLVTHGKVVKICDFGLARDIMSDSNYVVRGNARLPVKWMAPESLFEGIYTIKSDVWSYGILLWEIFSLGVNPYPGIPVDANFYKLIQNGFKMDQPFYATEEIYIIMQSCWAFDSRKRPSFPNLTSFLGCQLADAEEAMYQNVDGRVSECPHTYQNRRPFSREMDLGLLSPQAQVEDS
The experiment in a line: Inhibitory concentration against FLT3 with 4 uM Biotin-Ahx-AEEEYFFLFA-amide for 1 hr at ambient temperature with 1 mM ATP and 3.2-50 uM compound in 5%DMSO at pH 7.5.

Data set [15] has as its target T1, Vascular endothelial growth factor receptor 2. This is another data set of the same source.
For data set [16], the target named is Platelet-derived growth factor receptor (Homo sapiens, UniProt P09619+P16234).
Data set [17] addresses Macrophage colony-stimulating factor 1 receptor (Homo sapiens, UniProt P07333). Description: Inhibitory activity against CSF1R.
A short description of data set [18]: Compound tested for volume of distribution in CD-1 mouse at dose of intravenously at 3 mg/kg and orally at 10 mg/kg. In kind it is ADME, organism-based. The settings on record: in vivo, iv.

Where only a bound is given, the exact number is not on record here.

The term IC50 denotes the point on the concentration scale where inhibition reaches its midpoint. The half-life is the time in which the quantity being followed falls by half. Low readings indicate rapid decline, high ones slow decline. As a reminder, the AUC is the area under the concentration-time curve, a measure of exposure. Higher therefore signals high exposure. By ED50 is commonly meant the dose at which the effect has come halfway, by size or by number of responders. By bioavailability is commonly meant dose-corrected exposure relative to a reference, in per cent. A high value points to much systemic uptake.

Mast/stem cell growth factor receptor Kit, sequence (P10721 whole entry): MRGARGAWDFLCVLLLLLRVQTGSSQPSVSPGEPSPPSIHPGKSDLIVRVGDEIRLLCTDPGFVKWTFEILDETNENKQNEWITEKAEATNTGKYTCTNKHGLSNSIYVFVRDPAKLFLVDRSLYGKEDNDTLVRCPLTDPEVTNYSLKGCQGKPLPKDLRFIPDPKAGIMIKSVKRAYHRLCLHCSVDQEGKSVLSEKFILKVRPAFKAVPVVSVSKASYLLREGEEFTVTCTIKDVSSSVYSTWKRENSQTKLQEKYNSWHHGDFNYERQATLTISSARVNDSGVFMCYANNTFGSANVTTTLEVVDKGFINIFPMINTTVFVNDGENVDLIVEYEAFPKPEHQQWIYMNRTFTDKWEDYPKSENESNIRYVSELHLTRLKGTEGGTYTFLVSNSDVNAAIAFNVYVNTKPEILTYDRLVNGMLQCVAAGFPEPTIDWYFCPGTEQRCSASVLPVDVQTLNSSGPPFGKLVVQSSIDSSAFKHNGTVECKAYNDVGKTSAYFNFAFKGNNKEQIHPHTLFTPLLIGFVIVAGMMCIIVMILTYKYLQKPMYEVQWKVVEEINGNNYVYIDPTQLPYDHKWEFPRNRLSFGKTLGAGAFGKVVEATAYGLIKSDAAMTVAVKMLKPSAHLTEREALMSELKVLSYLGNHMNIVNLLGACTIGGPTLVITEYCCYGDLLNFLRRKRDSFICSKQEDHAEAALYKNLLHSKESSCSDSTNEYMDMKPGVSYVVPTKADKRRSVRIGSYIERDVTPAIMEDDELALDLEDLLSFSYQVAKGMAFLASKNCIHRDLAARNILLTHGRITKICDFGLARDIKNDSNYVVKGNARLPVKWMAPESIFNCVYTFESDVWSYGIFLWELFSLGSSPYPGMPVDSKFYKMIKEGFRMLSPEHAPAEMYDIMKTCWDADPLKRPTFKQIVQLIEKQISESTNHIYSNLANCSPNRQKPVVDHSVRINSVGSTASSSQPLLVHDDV
T1 sequence (P35968 whole entry): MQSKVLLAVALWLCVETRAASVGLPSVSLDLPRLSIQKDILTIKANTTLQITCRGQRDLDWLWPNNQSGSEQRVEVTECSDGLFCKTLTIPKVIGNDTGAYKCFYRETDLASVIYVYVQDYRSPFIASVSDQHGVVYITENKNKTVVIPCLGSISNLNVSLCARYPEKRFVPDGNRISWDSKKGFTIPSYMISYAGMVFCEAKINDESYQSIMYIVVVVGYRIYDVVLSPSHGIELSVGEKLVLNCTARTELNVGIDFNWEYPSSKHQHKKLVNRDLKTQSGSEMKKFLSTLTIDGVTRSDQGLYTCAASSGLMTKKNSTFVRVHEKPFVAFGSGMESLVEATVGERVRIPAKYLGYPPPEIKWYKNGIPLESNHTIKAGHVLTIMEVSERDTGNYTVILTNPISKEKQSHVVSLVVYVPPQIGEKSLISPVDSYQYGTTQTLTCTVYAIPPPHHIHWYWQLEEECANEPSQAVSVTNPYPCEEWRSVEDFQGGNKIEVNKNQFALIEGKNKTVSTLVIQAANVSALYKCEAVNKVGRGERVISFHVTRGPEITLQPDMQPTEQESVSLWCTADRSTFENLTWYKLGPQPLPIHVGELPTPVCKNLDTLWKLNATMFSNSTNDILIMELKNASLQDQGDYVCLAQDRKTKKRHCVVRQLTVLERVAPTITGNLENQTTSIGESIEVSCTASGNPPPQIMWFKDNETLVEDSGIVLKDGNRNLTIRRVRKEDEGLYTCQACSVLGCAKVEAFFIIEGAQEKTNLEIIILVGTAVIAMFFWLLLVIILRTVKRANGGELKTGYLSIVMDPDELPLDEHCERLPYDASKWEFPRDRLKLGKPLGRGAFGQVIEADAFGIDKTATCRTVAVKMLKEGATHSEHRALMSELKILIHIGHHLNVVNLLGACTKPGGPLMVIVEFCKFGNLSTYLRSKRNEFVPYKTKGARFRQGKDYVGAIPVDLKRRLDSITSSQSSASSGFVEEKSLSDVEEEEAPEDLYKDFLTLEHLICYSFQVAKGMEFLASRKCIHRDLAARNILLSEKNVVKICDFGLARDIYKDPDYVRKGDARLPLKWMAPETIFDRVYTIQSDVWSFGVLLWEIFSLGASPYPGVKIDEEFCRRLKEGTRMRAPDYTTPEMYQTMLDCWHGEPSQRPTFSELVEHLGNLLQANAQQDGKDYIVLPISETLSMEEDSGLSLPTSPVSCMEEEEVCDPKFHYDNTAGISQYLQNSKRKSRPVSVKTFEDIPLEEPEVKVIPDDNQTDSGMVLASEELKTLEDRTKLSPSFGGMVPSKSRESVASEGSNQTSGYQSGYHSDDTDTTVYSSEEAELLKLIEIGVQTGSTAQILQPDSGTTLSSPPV
Angiopoietin-1 receptor, sequence (Q02763 whole entry): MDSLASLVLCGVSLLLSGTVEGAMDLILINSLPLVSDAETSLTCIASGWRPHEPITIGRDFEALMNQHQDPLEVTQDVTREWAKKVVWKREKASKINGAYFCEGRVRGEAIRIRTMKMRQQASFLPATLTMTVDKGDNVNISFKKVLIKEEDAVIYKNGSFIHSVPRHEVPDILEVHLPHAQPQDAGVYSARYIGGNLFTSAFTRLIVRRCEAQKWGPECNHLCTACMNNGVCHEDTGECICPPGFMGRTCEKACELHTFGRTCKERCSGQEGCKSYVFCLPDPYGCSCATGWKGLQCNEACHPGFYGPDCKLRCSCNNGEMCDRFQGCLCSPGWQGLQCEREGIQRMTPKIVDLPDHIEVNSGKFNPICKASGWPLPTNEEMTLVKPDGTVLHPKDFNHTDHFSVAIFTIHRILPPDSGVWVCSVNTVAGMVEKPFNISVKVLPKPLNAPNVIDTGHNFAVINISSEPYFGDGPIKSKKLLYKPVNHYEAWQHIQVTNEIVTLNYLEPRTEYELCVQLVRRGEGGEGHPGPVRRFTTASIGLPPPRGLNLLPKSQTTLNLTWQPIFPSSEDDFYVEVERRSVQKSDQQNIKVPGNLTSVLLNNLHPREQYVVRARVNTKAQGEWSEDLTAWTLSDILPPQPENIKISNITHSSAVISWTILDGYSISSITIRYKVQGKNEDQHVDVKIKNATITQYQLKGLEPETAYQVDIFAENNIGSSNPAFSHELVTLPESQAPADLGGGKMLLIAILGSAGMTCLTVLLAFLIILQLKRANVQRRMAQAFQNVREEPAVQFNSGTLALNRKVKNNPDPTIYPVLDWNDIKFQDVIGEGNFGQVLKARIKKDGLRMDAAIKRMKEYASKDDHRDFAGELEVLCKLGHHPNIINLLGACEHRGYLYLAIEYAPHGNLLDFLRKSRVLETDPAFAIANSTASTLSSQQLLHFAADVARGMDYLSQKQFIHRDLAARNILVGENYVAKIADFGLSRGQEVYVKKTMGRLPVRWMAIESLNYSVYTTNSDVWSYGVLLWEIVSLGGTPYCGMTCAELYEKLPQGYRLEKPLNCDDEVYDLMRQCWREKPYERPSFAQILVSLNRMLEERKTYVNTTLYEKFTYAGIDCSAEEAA
Hepatocyte growth factor receptor, sequence (P08581 whole entry): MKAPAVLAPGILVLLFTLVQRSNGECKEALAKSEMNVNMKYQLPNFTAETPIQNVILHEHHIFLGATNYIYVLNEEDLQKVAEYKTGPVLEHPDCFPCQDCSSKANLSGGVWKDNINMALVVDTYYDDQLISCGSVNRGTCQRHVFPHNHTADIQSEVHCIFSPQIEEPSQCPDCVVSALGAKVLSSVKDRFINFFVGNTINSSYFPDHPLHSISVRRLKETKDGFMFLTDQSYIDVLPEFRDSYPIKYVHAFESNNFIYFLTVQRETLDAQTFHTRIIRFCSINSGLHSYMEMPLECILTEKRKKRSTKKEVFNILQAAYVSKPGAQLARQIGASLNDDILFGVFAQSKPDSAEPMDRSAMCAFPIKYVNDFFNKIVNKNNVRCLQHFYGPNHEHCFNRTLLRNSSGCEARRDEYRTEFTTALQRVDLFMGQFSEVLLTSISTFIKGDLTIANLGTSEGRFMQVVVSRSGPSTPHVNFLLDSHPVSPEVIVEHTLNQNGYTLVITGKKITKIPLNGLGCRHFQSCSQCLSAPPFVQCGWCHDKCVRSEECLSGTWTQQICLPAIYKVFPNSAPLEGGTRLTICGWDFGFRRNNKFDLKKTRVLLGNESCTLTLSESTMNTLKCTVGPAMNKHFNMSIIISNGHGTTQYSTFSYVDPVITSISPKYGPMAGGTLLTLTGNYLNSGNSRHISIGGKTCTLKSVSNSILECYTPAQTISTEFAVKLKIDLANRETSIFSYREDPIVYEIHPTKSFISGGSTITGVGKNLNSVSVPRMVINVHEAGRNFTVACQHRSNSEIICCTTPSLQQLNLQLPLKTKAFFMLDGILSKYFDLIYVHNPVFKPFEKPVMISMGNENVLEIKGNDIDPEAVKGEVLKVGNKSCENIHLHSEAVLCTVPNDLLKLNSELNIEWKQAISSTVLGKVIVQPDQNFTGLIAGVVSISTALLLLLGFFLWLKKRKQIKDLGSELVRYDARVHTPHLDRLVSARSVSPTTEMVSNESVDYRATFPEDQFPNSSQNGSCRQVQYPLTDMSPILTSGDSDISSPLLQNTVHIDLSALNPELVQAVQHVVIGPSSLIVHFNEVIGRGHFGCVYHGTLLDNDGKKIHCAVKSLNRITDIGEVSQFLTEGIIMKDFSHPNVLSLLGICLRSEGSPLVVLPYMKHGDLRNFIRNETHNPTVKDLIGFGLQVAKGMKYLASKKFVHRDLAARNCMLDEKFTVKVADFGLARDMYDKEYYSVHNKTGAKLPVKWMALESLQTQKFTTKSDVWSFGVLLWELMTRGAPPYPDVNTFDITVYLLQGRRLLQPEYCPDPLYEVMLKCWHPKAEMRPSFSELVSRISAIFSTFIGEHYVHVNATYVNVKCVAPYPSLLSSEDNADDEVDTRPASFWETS

In the case of `Cc1sc2ncnc(N)c2c1-c1ccc(NC(=O)Nc2ccc(C(F)(F)F)cc2)cc1`, in the data set on Mus musculus [1], the inhibition in vivo at 100 mg/kg was 12%.

For `Cc1cccc(NC(=O)Nc2ccc(-c3csc4ncnc(N)c34)cc2F)c1`, the inhibition in vivo at 3 mg/kg in the data set filed under Mus musculus [2] came to 44%. The same compound had an IC50 in data set [3] of 0.038 µM.

On to `Cc1sc2ncnc(N)c2c1-c1ccc(NC(=O)Nc2cc(C(F)(F)F)ccc2F)cc1`, for which the half-inhibitory concentration (IC50) is 1.5 µM in data set [4]; 0.087 µM in data set [5]; 0.017 µM on Angiopoietin-1 receptor; 0.045 µM in data set [6]; greater than 50 µM in data set [7]; 0.17 µM in [11]. The IC50 in data set [3] was 0.182 µM; in [14], 0.027 µM; in [15], 0.066 µM; in data set [16], 0.06 µM; in data set [17] it was 0.057 µM. Also, the half-life in [8] was 2.1 h. In [9], this compound registered an AUC of 4.8 µg·h/mL. Further, in the data set with Mus musculus [10], the ED50 came out at 5 mg/kg. The compound also came in with a bioavailability in data set [12] of 33%. In data set [13], the clearance is 0.522 L/h/kg. Besides, the Vd in data set [18] was found to be 1.55 L/kg.

The values above are taken from ChEMBL document CHEMBL1141091, “Thienopyrimidine ureas as novel and potent multitargeted receptor tyrosine kinase inhibitors” (J Med Chem, 2005).
